Experimental data published in patent US20080269248A1, “Tartrate and Malate Salts of Trans-1-((1R,3S)-6-Chloro-3-Phenylindan-1-Yl)-3,3-Dimethylpiperazine” (H. Lundbeck A/S, priority 2005, published 2008).

Columns and labels:
solubility of the salts = format: physicochemical
[1] = target: dopamine (DA) D1 receptors (Homo sapiens, UniProt P21728); conditions: as described in PCT/DK04/000546; cited from earlier work
alfal adrenoceptors = conditions: as described in PCT/DK04/000546; cited from earlier work
DA D2 receptors = DA D2 receptors (Homo sapiens, UniProt P14416); conditions: as described in PCT/DK04/000546; cited from earlier work
DA D2 receptors, sequence (P14416 whole entry): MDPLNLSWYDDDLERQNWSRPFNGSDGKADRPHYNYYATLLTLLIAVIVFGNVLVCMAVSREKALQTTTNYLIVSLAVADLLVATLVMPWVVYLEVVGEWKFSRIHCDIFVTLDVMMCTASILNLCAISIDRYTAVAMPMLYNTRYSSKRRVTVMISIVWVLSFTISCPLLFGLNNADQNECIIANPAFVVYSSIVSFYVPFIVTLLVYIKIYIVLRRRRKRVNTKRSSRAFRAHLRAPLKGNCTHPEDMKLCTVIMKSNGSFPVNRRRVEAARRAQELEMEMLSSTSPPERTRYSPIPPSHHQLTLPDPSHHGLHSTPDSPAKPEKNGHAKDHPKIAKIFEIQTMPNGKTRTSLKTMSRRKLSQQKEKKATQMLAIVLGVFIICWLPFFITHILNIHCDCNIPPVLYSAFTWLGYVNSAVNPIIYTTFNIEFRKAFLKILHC

[2] = tested on: pigs sensitized to haloperidol; assay: dystonia in pigs sensitized to haloperidol; format: in vivo
[3] = target: serotonin 5-HT2a receptors (Homo sapiens, UniProt P28223); conditions: as described in PCT/DK04/000546; cited from earlier work
serotonin 5-HT2a receptors, sequence (P28223 whole entry): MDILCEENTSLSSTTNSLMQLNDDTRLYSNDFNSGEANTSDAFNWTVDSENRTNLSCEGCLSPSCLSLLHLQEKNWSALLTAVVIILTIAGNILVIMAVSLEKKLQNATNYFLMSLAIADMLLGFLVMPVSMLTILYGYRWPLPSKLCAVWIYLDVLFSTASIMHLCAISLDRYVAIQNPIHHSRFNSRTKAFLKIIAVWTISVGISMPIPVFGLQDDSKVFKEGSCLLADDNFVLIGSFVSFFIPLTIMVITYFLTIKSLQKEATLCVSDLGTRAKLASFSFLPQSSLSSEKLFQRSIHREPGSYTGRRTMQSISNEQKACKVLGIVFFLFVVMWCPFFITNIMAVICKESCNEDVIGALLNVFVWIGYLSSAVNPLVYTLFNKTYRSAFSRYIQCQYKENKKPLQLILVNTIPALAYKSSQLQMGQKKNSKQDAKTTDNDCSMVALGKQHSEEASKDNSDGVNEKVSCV

dopamine D2 receptors = dopamine D2 receptors (Homo sapiens, UniProt P14416); conditions: as described in PCT/DK04/000546; cited from earlier work
dopamine D2 receptors, sequence (P14416 whole entry): as the sequence (P14416 whole entry) above

CYP2D6 = CYP2D6 (Homo sapiens, UniProt P10635); conditions: as described in PCT/DK04/000546; cited from earlier work
CYP2D6, sequence (P10635 whole entry): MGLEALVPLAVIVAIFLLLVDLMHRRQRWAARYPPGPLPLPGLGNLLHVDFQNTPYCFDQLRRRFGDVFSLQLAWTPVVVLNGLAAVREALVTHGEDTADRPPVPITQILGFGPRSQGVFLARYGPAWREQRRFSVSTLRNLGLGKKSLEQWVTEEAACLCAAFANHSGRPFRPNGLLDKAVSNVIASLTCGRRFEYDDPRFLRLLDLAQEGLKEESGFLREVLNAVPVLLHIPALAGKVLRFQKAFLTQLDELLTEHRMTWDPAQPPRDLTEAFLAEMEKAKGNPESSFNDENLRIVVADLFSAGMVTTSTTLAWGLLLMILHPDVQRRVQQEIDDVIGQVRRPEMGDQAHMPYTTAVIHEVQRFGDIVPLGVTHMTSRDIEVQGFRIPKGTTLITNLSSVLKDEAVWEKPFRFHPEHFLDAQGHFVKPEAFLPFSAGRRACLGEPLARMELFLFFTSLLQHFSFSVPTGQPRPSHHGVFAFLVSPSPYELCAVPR

dopamine D1 receptors = dopamine D1 receptors (Homo sapiens, UniProt P21728); conditions: as described in PCT/DK04/000546; cited from earlier work
dopamine D1 receptors, sequence (P21728 whole entry): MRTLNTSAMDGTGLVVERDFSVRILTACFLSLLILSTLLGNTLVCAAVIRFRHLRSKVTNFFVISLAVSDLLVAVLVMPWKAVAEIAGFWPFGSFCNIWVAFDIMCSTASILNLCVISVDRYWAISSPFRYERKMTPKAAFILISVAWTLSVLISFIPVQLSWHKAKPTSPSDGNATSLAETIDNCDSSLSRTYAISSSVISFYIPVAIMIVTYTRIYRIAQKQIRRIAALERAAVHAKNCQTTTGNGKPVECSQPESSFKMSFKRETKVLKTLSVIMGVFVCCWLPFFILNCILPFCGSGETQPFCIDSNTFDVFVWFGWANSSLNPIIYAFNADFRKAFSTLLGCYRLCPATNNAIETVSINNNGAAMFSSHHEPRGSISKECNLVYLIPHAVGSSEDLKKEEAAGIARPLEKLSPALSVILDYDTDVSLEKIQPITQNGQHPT

[4] = rabbit model; as described in PCT/DK04/000546; cited from earlier work

dopamine (DA) D1 receptors, sequence (P21728 whole entry): as above

## CC1(C)CN([C@@H]2C[C@@H](c3ccccc3)c3ccc(Cl)cc32)CCN1.CC1(C)CN([C@@H]2C[C@@H](c3ccccc3)c3ccc(Cl)cc32)CCN1.O=C(O)C[C@H](O)C(=O)O (relative stereo) [malate salt, trans-1-((1R,3S)-6-chloro-3-phenylindan-1-yl)-3,3-dimethylpiperazinium L-malate]
Solubility of the salts
  solubility: 0.8 mg/mL

## CC1(C)CN([C@@H]2C[C@@H](c3ccccc3)c3ccc(Cl)cc32)CCN1 [Compound I, trans-1-((1R,3S)-6-chloro-3-phenylindan-1-yl)-3,3-dimethylpiperazine]
[1]
  affinity for dopamine (DA) D1 receptors: high affinity
Alfal adrenoceptors
  affinity for alfal adrenoceptors: high affinity
DA D2 receptors
  affinity for DA D2 receptors: high affinity
[2]
  induction of dystonia (EPS liability): did not induce dystonia
[3]
  functional activity at serotonin 5-HT2a receptors: antagonist
Dopamine D2 receptors
  functional activity at dopamine D2 receptors: antagonist
CYP2D6
  inhibition of CYP2D6: relatively weak inhibitor
Dopamine D1 receptors
  functional activity at dopamine D1 receptors: antagonist
[4]
  effect on the QT interval: relatively low effect
